The values that follow are results of earlier work, collected in patent US20130237476A1, “ADIPOSE TISSUE TARGETED PEPTIDES” (ABLARIS THERAPEUTICS INC., priority 2012, published 2013).

Where no end group is shown, it is not given here. [ ]: non-standard residue; d: D form. Ex = not defined here

Data set [1] has as its system visceral adipose tissue (white fat).
The conditions of data set [2]: diastereomeric peptide with 5th and 9th residues as L-analogs; comparator not stated.
Data set [3] concerns prohibitin. Conditions: Kolonin et al., Nat Med 2004; prohibitin expressed in adipose tissue.

As for “CKGGRAKDC-GG-D(KLAKLAKKLAKLAK) (CKGGRAKDCGG[dK][dL][dA][dK][dL][dA][dK][dK][dL][dA][dK][dL][dA][dK]; cysteine pairing not given here) [ABL-1, targeting peptide operably linked to an apoptotic therapeutic peptide]”, the obesity reversal entry in data set [1] (animal models, after resorption of established white fat) is listed as “rapid obesity reversal”. Further, the “ablation of visceral adipose tissue” value in data set [1] (targets prohibitin in adipose vascular endothelial cells) is given as “cause ablation of visceral adipose tissue”.

“D,L-(KExAKExAK)2 (K[Ex]AK[Ex]AKK[Ex]AK[Ex]AK; reading uncertain; also: D/L diastereomeric residues, positions not given here) [diasteriomeric peptide in which the 5th and 9th residues were replaced with L-analogs to disrupt alpha helicity]”: the hemolytic activity result in data set [2] is “greatly reduced”.

Turning to CKGGRAKDC [adipose targeting peptide], the association with prohibitin result in data set [3] was “associates with prohibitin”.
